Measurements published in ChEMBL document CHEMBL5463729, “Data for DCP probe BAY 1753011” (2023).

Tests used:
[1] = target: Calcium/calmodulin-dependent protein kinase kinase 1 (Homo sapiens) (UniProt Q8N5S9); test: Inhibition of CaMKK1(h) at 10.0 µM in the Eurofins Kinase panel; conditions: Compound concentration 10.0 uM
[2] = target: Cyclin-dependent kinase 14/Cyclin-Y (Homo sapiens) (UniProt O94921+Q8ND76); test: Inhibition of CDK14/cyclinY(h) at 10.0 µM in the Eurofins Kinase panel; format: protein-complex assay; conditions: Compound concentration 10.0 uM
[3] = target: CDK6/cyclin D3 (Homo sapiens) (UniProt P30281+Q00534); test: Inhibition of CDK6/cyclinD3(h) at 10.0 µM in the Eurofins Kinase panel; format: protein-complex assay; conditions: Compound concentration 10.0 uM
[4] = target: Cyclin-dependent kinase-like 1 (Homo sapiens) (UniProt Q00532); test: Inhibition of CDKL1(h) at 10.0 µM in the Eurofins Kinase panel; conditions: Compound concentration 10.0 uM
[5] = target: Serine/threonine-protein kinase Chk1 (Homo sapiens) (UniProt O14757); test: Inhibition of CHK1(h) at 10.0 µM in the Eurofins Kinase panel; conditions: Compound concentration 10.0 uM
[6] = target: Myotonin-protein kinase (Homo sapiens) (UniProt Q09013); test: Inhibition of DMPK(h) at 10.0 µM in the Eurofins Kinase panel; conditions: Compound concentration 10.0 uM
[7] = target: Ephrin type-A receptor 7 (Homo sapiens) (UniProt Q15375); test: Inhibition of EphA7(h) at 10.0 µM in the Eurofins Kinase panel; conditions: Compound concentration 10.0 uM
[8] = target: Ephrin type-B receptor 2 (Homo sapiens) (UniProt P29323); test: Inhibition of EphB2(h) at 10.0 µM in the Eurofins Kinase panel; conditions: Compound concentration 10.0 uM
[9] = target: Tyrosine-protein kinase Fyn (Homo sapiens) (UniProt P06241); test: Inhibition of Fyn(h) at 10.0 µM in the Eurofins Kinase panel; conditions: Compound concentration 10.0 uM
[10] = target: Inhibitor of nuclear factor kappa-B kinase subunit epsilon (Homo sapiens) (UniProt Q14164); test: Inhibition of IKKepsilon(h) at 10.0 µM in the Eurofins Kinase panel; conditions: Compound concentration 10.0 uM
[11] = target: Serine/threonine-protein kinase/endoribonuclease IRE1 (Homo sapiens) (UniProt O75460); test: Inhibition of IRE1(h) at 10.0 µM in the Eurofins Kinase panel; conditions: Compound concentration 10.0 uM
[12] = target: Tyrosine-protein kinase ITK/TSK (Homo sapiens) (UniProt Q08881); test: Inhibition of Itk(h) at 10.0 µM in the Eurofins Kinase panel; conditions: Compound concentration 10.0 uM
[13] = target: Serine/threonine-protein kinase MARK1 (Homo sapiens) (UniProt Q9P0L2); test: Inhibition of MARK1(h) at 10.0 µM in the Eurofins Kinase panel; conditions: Compound concentration 10.0 uM
[14] = target: Maternal embryonic leucine zipper kinase (Homo sapiens) (UniProt Q14680); test: Inhibition of MELK(h) at 10.0 µM in the Eurofins Kinase panel; conditions: Compound concentration 10.0 uM
[15] = target: Dual specificity mitogen-activated protein kinase kinase 6 (Homo sapiens) (UniProt P52564); test: Inhibition of MKK6(h) at 10.0 µM in the Eurofins Kinase panel; conditions: Compound concentration 10.0 uM
[16] = target: Mitogen-activated protein kinase kinase kinase 11 (Homo sapiens) (UniProt Q16584); test: Inhibition of MLK3(h) at 10.0 µM in the Eurofins Kinase panel; conditions: Compound concentration 10.0 uM
[17] = target: Serine/threonine-protein kinase MRCK gamma (Homo sapiens) (UniProt Q6DT37); test: Inhibition of MRCKgamma(h) at 10.0 µM in the Eurofins Kinase panel; conditions: Compound concentration 10.0 uM
[18] = target: Serine/threonine-protein kinase Nek7 (Homo sapiens) (UniProt Q8TDX7); test: Inhibition of NEK7(h) at 10.0 µM in the Eurofins Kinase panel; conditions: Compound concentration 10.0 uM
[19] = target: [Pyruvate dehydrogenase (acetyl-transferring)] kinase isozyme 4, mitochondrial (Homo sapiens) (UniProt Q16654); test: Inhibition of PDHK4(h) at 10.0 µM in the Eurofins Kinase panel; conditions: Compound concentration 10.0 uM
[20] = target: Serine/threonine-protein kinase pim-1 (Homo sapiens) (UniProt P11309); test: Inhibition of Pim-1(h) at 10.0 µM in the Eurofins Kinase panel; conditions: Compound concentration 10.0 uM
[21] = target: Serine/threonine-protein kinase SIK2 (Homo sapiens) (UniProt Q9H0K1); test: Inhibition of SIK2(h) at 10.0 µM in the Eurofins Kinase panel; conditions: Compound concentration 10.0 uM
[22] = target: Serine/threonine-protein kinase 32A (Homo sapiens) (UniProt Q8WU08); test: Inhibition of STK32A(h) at 10.0 µM in the Eurofins Kinase panel; conditions: Compound concentration 10.0 uM
[23] = target: TGF-beta receptor type-2 (Homo sapiens) (UniProt P37173); test: Inhibition of TGFBR2(h) at 10.0 µM in the Eurofins Kinase panel; conditions: Compound concentration 10.0 uM
[24] = target: Testis-specific serine/threonine-protein kinase 1 (Homo sapiens) (UniProt Q9BXA7); test: Inhibition of TSSK1(h) at 10.0 µM in the Eurofins Kinase panel; conditions: Compound concentration 10.0 uM
[25] = target: D(3) dopamine receptor (Homo sapiens) (UniProt P35462); conditions: Compound concentration 10.0 uM
[26] = target: Histamine H3 receptor (Homo sapiens) (UniProt Q9Y5N1); conditions: Compound concentration 10.0 uM
[27] = target: Alpha-1B adrenergic receptor (Homo sapiens) (UniProt P35368); conditions: Compound concentration 10.0 uM
[28] = target: T1, Alpha-2A adrenergic receptor (Homo sapiens) (UniProt P08913); conditions: Compound concentration 10.0 uM
T1 sequence (whole entry): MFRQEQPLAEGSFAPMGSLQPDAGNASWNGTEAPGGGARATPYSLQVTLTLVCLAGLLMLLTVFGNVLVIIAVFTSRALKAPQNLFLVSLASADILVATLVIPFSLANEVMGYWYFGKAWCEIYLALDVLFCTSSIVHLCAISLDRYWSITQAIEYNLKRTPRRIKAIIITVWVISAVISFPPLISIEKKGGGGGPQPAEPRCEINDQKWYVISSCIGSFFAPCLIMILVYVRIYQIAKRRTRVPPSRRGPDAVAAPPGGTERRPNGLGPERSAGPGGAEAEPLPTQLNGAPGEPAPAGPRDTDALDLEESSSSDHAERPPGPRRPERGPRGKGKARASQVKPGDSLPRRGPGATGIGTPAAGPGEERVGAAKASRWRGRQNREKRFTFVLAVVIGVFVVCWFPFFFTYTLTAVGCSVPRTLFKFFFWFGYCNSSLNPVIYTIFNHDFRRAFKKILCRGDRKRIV

[29] = target: B2 bradykinin receptor (Homo sapiens) (UniProt P30411); conditions: Compound concentration 10.0 uM
[30] = target: 5-hydroxytryptamine receptor 2B (Homo sapiens) (UniProt P41595); conditions: Compound concentration 10.0 uM
[31] = target: Glutamate receptor 2 (Homo sapiens) (UniProt P42262); conditions: Rattus norvegicus; Compound concentration 10.0 uM
[32] = target: 3-phosphoinositide-dependent protein kinase 1 (Homo sapiens) (UniProt O15530); test: Inhibition of PDK1(h) at 10.0 µM in the Eurofins Kinase panel; conditions: Compound concentration 10.0 uM
[33] = target: Phosphorylase b kinase gamma catalytic chain, testis/liver isoform (Homo sapiens) (UniProt P15735); test: Inhibition of PhKgamma2(h) at 10.0 µM in the Eurofins Kinase panel; conditions: Compound concentration 10.0 uM
Chain of Phosphorylase b kinase gamma catalytic chain, testis/liver isoform (Homo sapiens) (P15735 whole entry, looked up, canonical isoform): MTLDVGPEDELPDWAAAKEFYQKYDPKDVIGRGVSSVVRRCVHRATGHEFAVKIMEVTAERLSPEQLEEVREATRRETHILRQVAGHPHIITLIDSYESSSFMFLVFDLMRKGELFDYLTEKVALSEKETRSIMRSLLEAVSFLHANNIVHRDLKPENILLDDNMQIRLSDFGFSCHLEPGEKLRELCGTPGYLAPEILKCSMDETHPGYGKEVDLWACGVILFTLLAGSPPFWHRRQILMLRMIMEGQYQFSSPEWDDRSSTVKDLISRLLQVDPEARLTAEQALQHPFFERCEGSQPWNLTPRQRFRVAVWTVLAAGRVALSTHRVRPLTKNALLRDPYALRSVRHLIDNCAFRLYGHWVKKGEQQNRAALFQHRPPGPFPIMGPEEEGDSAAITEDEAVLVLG

Chain of Alpha-1B adrenergic receptor (Homo sapiens) (P35368 whole entry): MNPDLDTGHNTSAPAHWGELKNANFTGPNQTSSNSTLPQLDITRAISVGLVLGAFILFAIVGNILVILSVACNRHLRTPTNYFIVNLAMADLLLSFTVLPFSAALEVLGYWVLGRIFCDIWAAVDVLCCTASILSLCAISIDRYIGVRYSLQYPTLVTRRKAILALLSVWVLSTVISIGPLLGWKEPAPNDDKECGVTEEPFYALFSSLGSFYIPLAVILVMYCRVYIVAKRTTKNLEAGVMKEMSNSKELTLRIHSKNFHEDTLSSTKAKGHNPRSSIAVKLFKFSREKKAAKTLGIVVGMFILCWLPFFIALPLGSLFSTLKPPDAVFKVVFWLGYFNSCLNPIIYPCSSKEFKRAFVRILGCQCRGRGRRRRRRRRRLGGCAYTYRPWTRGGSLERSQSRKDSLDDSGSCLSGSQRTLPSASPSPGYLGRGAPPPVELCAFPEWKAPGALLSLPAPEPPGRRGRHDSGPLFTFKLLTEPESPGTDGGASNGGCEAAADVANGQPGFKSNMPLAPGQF
Chain of D(3) dopamine receptor (Homo sapiens) (P35462 whole entry): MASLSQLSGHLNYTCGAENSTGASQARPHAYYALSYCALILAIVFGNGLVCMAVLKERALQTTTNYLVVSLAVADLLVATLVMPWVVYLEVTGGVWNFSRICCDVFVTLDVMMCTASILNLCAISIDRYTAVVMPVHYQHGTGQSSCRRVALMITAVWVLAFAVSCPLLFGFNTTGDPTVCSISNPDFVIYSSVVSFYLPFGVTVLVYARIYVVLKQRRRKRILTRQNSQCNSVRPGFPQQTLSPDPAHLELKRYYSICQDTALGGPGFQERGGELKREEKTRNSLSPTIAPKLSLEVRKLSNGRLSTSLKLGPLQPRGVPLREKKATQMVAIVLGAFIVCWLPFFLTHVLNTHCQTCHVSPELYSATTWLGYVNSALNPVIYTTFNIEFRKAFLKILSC
Chain of Histamine H3 receptor (Homo sapiens) (Q9Y5N1 whole entry): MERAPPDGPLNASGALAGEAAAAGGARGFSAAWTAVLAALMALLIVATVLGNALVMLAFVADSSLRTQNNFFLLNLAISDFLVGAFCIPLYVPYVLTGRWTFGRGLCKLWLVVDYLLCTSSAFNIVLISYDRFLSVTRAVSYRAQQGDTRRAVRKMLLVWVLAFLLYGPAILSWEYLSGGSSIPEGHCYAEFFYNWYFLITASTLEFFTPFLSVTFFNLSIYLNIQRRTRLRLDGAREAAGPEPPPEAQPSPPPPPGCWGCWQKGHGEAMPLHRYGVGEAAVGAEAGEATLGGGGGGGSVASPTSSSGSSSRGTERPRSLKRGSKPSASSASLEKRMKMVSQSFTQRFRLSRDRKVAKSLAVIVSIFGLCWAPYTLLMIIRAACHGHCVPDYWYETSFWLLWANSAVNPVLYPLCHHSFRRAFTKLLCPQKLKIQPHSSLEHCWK
Chain of Ephrin type-A receptor 7 (Homo sapiens) (Q15375 28-998 limits assumed): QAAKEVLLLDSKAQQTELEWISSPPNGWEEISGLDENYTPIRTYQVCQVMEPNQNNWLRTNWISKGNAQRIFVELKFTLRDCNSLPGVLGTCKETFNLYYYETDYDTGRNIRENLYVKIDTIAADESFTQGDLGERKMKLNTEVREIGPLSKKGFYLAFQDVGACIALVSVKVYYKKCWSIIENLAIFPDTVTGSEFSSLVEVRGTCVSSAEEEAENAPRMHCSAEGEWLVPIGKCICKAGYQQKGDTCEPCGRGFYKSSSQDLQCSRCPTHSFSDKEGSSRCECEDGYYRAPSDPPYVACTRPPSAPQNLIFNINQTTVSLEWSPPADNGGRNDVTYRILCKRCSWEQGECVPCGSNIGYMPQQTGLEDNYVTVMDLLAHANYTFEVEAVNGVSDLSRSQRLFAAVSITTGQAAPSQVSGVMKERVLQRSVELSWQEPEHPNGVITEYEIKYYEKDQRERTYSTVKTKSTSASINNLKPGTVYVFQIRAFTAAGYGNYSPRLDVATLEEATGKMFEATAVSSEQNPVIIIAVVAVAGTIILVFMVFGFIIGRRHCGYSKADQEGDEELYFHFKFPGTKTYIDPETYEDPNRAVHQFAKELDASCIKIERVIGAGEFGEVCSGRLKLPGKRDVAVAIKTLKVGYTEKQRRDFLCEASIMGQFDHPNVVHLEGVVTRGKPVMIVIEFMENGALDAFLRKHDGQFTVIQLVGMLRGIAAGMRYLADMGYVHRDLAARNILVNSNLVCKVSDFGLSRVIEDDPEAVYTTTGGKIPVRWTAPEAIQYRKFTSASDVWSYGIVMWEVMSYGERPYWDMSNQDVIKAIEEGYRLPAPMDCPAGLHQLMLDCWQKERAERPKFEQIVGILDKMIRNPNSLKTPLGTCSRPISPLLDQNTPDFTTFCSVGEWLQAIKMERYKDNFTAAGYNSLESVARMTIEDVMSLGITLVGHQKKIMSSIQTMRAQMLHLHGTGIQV
Chain of Serine/threonine-protein kinase 32A (Homo sapiens) (Q8WU08 whole entry): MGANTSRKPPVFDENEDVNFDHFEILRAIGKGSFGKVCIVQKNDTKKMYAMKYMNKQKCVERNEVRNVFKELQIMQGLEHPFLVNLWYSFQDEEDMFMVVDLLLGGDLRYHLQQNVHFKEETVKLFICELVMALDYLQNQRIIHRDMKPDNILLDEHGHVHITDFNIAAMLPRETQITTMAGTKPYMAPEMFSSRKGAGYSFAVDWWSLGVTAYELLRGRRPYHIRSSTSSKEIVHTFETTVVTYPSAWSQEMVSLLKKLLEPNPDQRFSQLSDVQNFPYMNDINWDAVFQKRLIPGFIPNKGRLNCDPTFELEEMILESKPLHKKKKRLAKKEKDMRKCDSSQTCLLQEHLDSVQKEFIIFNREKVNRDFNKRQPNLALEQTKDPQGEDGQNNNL
Chain of Serine/threonine-protein kinase pim-1 (Homo sapiens) (P11309 whole entry, looked up): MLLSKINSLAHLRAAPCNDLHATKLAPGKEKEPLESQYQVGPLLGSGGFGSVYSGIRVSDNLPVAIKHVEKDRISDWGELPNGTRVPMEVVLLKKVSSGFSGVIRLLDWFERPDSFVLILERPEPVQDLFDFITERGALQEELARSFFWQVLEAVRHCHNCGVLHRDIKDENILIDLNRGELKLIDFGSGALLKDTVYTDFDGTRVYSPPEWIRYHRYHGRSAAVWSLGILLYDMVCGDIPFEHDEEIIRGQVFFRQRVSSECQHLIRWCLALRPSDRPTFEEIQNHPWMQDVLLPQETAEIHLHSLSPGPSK
Chain of Glutamate receptor 2 (Homo sapiens) (P42262 whole entry): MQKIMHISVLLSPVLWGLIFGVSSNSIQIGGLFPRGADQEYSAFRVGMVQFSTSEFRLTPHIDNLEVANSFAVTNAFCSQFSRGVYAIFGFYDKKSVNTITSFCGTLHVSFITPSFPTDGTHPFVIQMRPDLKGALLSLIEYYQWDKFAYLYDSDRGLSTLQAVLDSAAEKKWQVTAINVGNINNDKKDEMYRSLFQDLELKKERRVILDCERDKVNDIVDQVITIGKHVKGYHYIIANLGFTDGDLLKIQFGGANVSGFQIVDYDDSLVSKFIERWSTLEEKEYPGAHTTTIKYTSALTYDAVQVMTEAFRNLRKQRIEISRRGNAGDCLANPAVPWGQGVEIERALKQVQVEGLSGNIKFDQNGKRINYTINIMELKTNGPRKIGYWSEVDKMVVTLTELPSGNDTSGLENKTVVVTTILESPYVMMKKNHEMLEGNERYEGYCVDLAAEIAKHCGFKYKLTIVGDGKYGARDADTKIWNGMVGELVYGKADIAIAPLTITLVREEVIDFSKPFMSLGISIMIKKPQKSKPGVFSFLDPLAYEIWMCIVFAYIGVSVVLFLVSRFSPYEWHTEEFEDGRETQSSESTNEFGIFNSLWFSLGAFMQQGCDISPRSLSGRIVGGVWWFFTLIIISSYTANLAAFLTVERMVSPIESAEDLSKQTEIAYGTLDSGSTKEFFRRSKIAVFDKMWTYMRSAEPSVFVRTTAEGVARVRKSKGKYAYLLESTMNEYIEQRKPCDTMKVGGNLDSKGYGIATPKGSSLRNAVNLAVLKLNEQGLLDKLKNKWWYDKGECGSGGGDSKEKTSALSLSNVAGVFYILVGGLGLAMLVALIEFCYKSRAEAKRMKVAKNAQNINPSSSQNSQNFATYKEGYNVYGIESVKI
Chain of Serine/threonine-protein kinase Chk1 (Homo sapiens) (O14757 whole entry): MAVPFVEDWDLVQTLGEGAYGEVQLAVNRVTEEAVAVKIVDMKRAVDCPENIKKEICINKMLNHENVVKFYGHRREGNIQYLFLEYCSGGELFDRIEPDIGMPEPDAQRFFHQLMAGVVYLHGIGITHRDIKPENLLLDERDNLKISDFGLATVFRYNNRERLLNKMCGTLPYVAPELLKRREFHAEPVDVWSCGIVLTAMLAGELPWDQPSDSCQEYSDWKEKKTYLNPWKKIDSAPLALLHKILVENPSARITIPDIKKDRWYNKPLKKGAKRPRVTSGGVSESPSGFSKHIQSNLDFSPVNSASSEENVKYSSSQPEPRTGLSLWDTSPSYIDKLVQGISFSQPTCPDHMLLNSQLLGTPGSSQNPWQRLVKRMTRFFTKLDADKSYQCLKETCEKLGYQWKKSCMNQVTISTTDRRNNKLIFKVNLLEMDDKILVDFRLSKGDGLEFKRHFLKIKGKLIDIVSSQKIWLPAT

SMILES	inhibition [1]	inhibition [2]	inhibition [3]	inhibition [4]	inhibition [5]	inhibition [6]	inhibition [7]	inhibition [8]	inhibition [9]	inhibition [10]	inhibition [11]	inhibition [12]	inhibition [13]	inhibition [14]	inhibition [15]	inhibition [16]	inhibition [17]	inhibition [18]	inhibition [19]	inhibition [20]	also measured
O=c1n(Cc2cncn2-c2cccc(Cl)c2)nc(-c2ccc(Cl)cc2)n1C[C@H](O)C(F)(F)F	1.19%	-0.16%	0.27%	6.34%	1.73%	4.48%	3.37%	-4.8%	5.53%	0.02%	19.2%	-2.65%	2.63%	8.95%	5.77%	14.9%	1.06%	1.5%	5.68%	6.13%	inhibition [21]: 1.82%; inhibition [22]: -1.08%; inhibition [23]: 8.26%; inhibition [24]: 7.23%; inhibition [25]: 18.3%; inhibition [26]: 5.05%; inhibition [27]: -2.47%; inhibition [28]: 5%; inhibition [29]: -10%; inhibition [30]: 12%; inhibition [31]: 3%; inhibition [32]: -8.39%; inhibition [33]: -3.49%
C[C@H](O)c1nc(Cn2nc(-c3ccc(Cl)cc3)n(C[C@H](O)C(F)(F)F)c2=O)nn1-c1cccc(Cl)c1 [PECAVAPTAN]	-5.02%	-0.61%	-0.62%	1.83%	2.42%	12.7%	4.11%	6.86%	-1.76%	3.03%	5.58%	-7.19%	0.06%	10.8%	7.34%	11.3%	2.11%	3.8%	9.02%	0.99%	inhibition [21]: -3.07%; inhibition [22]: 3.15%; inhibition [23]: 8.85%; inhibition [24]: -5.64%; inhibition [25]: 19.7%; inhibition [26]: 11.9%; inhibition [27]: -5.25%; inhibition [28]: 3%; inhibition [29]: 1%; inhibition [30]: 52%; inhibition [31]: 2%; inhibition [32]: -3.55%; inhibition [33]: 0.74%
